Test results reported in ChEMBL document CHEMBL1201861, “Genomics of Drug Sensitity in Cancer screening data, Wellcome Trust Sanger Institute”.

What was measured:
Format in all cases: functional, cell-based
Ca9-22 = assay: cells; settings: Homo sapiens;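 also: growth inhibition of Ca9-22 cells, read out with a cell viability assay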
Description: SANGER: Inhibition of human Ca9-22 cell growth in a cell viability assay.

Calu-3 = assay: cells; settings: Homo sapiens;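 also: growth inhibition of human Calu-3 cells, determined with a cell viability assay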
Description: SANGER: Inhibition of human Calu-3 cell growth in a cell viability assay.

D-336MG = assay: cells; settings: Homo sapiens
Description: SANGER: Inhibition of human D-336MG cell growth in a cell viability assay.

D-392MG = assay: cells; settings: Homo sapiens
D-542MG = assay: cells; settings: Homo sapiens
Description: SANGER: Inhibition of human D-542MG cell growth in a cell viability assay.

EFO-27 = assay: cells; settings: Homo sapiens;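 also: growth inhibition of EFO-27 cells, read out with a cell viability assay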
Description: SANGER: Inhibition of human EFO-27 cell growth in a cell viability assay.

HCC1395 = assay: cells; settings: Homo sapiens;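 also: growth inhibition of HCC1395 cells, read out by a cell viability assay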
Description: SANGER: Inhibition of human HCC1395 cell growth in a cell viability assay.

HO-1-N-1 = assay: cells; settings: Homo sapiens;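 also: growth inhibition of human HO-1-N-1 cells, read out with a cell viability assay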
Description: SANGER: Inhibition of human HO-1-N-1 cell growth in a cell viability assay.

HPAF-II = assay: cells; settings: Homo sapiens;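 also: growth inhibition of HPAF-II cells, read out with a cell viability assay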
Description: SANGER: Inhibition of human HPAF-II cell growth in a cell viability assay.

HT55 = assay: cells; settings: Homo sapiens;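 also: cell viability readout measuring growth inhibition of human HT55 cells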
Description: SANGER: Inhibition of human HT55 cell growth in a cell viability assay.

IM-9 = assay: SANGER: Inhibition of human IM-9 cell growth in a cell viability assay.
IMR-5 = assay: cells; settings: Homo sapiens;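 also: growth inhibition of human IMR-5 cells, read out with a cell viability assay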
Description: SANGER: Inhibition of human IMR-5 cell growth in a cell viability assay.

KARPAS-422 = assay: cells; settings: Homo sapiens
Description: SANGER: Inhibition of human KARPAS-422 cell growth in a cell viability assay.

KYSE-180 = assay: cells; settings: Homo sapiens;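 also: growth inhibition of KYSE-180 cells, read out with a cell viability assay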
Description: SANGER: Inhibition of human KYSE-180 cell growth in a cell viability assay.

KYSE-70 cell line = assay: cells; settings: Homo sapiens;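 also: cell viability assay read-out, with IC50 expressing suppression of KYSE-70 cell growth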
Description: SANGER: Inhibition of human KYSE-70 cell growth in a cell viability assay.

LCLC-103H cell line = assay: cells; settings: Homo sapiens
Description: SANGER: Inhibition of human LCLC-103H cell growth in a cell viability assay.

LP-1 = assay: cells; settings: Homo sapiens;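 also: growth inhibition of human LP-1 cells, with the read-out taken from a cell viability assay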
Description: SANGER: Inhibition of human LP-1 cell growth in a cell viability assay.

LU-165 = assay: cells; settings: Homo sapiens
Description: SANGER: Inhibition of human LU-165 cell growth in a cell viability assay.

LoVo = assay: cells; settings: Homo sapiens;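 also: growth inhibition of human LoVo cells, read out with a cell viability assay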
Description: SANGER: Inhibition of human LoVo cell growth in a cell viability assay.

MDA-MB-361 = assay: cells; settings: Homo sapiens
MDA-MB-415 = assay: cells; settings: Homo sapiens
ME-180 = assay: cells; settings: Homo sapiens;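 also: cell viability assay measuring growth inhibition of ME-180 cells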
Description: SANGER: Inhibition of human ME-180 cell growth in a cell viability assay.

MFE-280 = assay: cells; settings: Homo sapiens;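 also: growth inhibition of MFE-280 cells, determined with a cell viability readout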
Description: SANGER: Inhibition of human MFE-280 cell growth in a cell viability assay.

MKN-28 = assay: cells; settings: Homo sapiens;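 also: cell viability assay read-out, IC50 reflects suppression of growth of human MKN-28 cells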
Description: SANGER: Inhibition of human MKN28 cell growth in a cell viability assay.

MONO-MAC-6 = assay: cells; settings: Homo sapiens;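 also: cell viability assay measuring growth inhibition of human MONO-MAC-6 cells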
Description: SANGER: Inhibition of human MONO-MAC-6 cell growth in a cell viability assay.

NCI-H1437 = assay: cells; settings: Homo sapiens;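 also: growth inhibition of human NCI-H1437 cells, read out by a cell viability assay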
Description: SANGER: Inhibition of human NCI-H1437 cell growth in a cell viability assay.

NCI-H1703 = assay: cells; settings: Homo sapiens;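 also: growth inhibition of NCI-H1703 cells, read out via a cell viability assay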
Description: SANGER: Inhibition of human NCI-H1703 cell growth in a cell viability assay.

NCI-H1755 = assay: cells; settings: Homo sapiens;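 also: cell viability readout used to measure growth inhibition of NCI-H1755 cells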
Description: SANGER: Inhibition of human NCI-H1755 cell growth in a cell viability assay.

NCI-H1963 = assay: cells; settings: Homo sapiens;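 also: cell growth inhibition of the human line, determined with a cell viability assay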
Description: SANGER: Inhibition of human NCI-H1963 cell growth in a cell viability assay.

NCI-H2087 = assay: cells; settings: Homo sapiens;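 also: growth inhibition determined with a cell viability readout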
Description: SANGER: Inhibition of human NCI-H2087 cell growth in a cell viability assay.

NCI-H2122 = assay: cells; settings: Homo sapiens;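 also: growth inhibition of the cells, read out with a cell viability assay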
Description: SANGER: Inhibition of human NCI-H2122 cell growth in a cell viability assay.

NCI-H2452 = assay: cells; settings: Homo sapiens;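 also: growth inhibition of NCI-H2452 cells, read out with a cell viability assay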
Description: SANGER: Inhibition of human NCI-H2452 cell growth in a cell viability assay.

NCI-H292 = assay: cells; settings: Homo sapiens;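 also: growth inhibition of NCI-H292 cells, read out with a cell viability assay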
Description: SANGER: Inhibition of human NCI-H292 cell growth in a cell viability assay.

NCI-H358 = assay: cells; settings: Homo sapiens;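 also: growth inhibition of NCI-H358 human cells, read out with a cell viability assay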
Description: SANGER: Inhibition of human NCI-H358 cell growth in a cell viability assay.

NCI-H522 = assay: cells; settings: Homo sapiens;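 also: cell viability assay measuring growth inhibition of human NCI-H522 cells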
Description: SANGER: Inhibition of human NCI-H522 cell growth in a cell viability assay.

NCI-H719 = assay: cells; settings: Homo sapiens;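 also: growth inhibition of the cultured cell line, read out with a viability assay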
Description: SANGER: Inhibition of human NCI-H719 cell growth in a cell viability assay.

NCI-H810 = assay: cells; settings: Homo sapiens;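 also: IC50 reflects inhibition of cancer cell line growth, read out with a cell viability assay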
Description: SANGER: Inhibition of human NCI-H810 cell growth in a cell viability assay.

OE33 = assay: cells; settings: Homo sapiens;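 also: growth inhibition of human OE33 cells, measured by a cell viability assay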
Description: SANGER: Inhibition of human OE33 cell growth in a cell viability assay.

PC-14 = assay: cells; settings: Homo sapiens;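 also: cell viability assay measuring inhibition of PC-14 cell growth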
Description: SANGER: Inhibition of human PC-14 cell growth in a cell viability assay.

RD = assay: cells; settings: Homo sapiens
Description: SANGER: Inhibition of human RD cell growth in a cell viability assay.

RPMI-7951 = assay: cells; settings: Homo sapiens
Description: SANGER: Inhibition of human RPMI-7951 cell growth in a cell viability assay.

RT-112 = assay: cells; settings: Homo sapiens
Description: SANGER: Inhibition of human RT-112 cell growth in a cell viability assay.

SCC-4 = assay: cells; settings: Homo sapiens;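 also: growth inhibition of human SCC-4 cells, read out as cell viability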
Description: SANGER: Inhibition of human SCC-4 cell growth in a cell viability assay.

SF-295 = assay: cells; settings: Homo sapiens;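 also: growth inhibition of SF-295 cells, read out with a cell viability assay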
Description: SANGER: Inhibition of human SF295 cell growth in a cell viability assay.

SK-LU-1 = assay: cells; settings: Homo sapiens;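 also: cell viability assay measuring growth inhibition of human SK-LU-1 cells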
Description: SANGER: Inhibition of human SK-LU-1 cell growth in a cell viability assay.

SU-DHL-1 = assay: SANGER: Inhibition of human SU-DHL-1 cell growth in a cell viability assay.
SUP-T1 = assay: cells; settings: Homo sapiens;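 also: growth inhibition of human SUP-T1 cells, read out as cell viability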
Description: SANGER: Inhibition of human SUP-T1 cell growth in a cell viability assay.

SW1463 = assay: cells; settings: Homo sapiens;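 also: growth inhibition of SW1463 cells, determined with a cell viability assay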
Description: SANGER: Inhibition of human SW1463 cell growth in a cell viability assay.

SW-620 = assay: cells; settings: Homo sapiens;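 also: growth inhibition of human SW-620 cells, measured by a cell viability assay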
Description: SANGER: Inhibition of human SW620 cell growth in a cell viability assay.

SW837 = assay: cells; settings: Homo sapiens;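 also: growth inhibition of SW837 cells, determined with a cell viability assay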
Description: SANGER: Inhibition of human SW837 cell growth in a cell viability assay.

SW948 = assay: cells; settings: Homo sapiens;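 also: growth inhibition of SW948 cells, read out with a cell viability assay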
Description: SANGER: Inhibition of human SW948 cell growth in a cell viability assay.

5637 = assay: cells; settings: Homo sapiens
Description: SANGER: Inhibition of human 5637 cell growth in a cell viability assay.

639-V = assay: cells; settings: Homo sapiens;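 also: growth inhibition of 639-V cells, read out with a cell viability assay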
Description: SANGER: Inhibition of human 639-V cell growth in a cell viability assay.

8505C = assay: cells; settings: Homo sapiens
Description: SANGER: Inhibition of human 8505C cell growth in a cell viability assay.

A 172 = assay: cells; settings: Homo sapiens;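 also: growth inhibition of A172 cells, measured with a cell viability readout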
Description: SANGER: Inhibition of human A172 cell growth in a cell viability assay.

ABC-1 = assay: cells; settings: Homo sapiens;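 also: growth inhibition of human ABC-1 cells, read out by a cell viability assay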
Description: SANGER: Inhibition of human ABC-1 cell growth in a cell viability assay.

AGS = assay: cells; settings: Homo sapiens;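 also: growth inhibition of AGS cells, determined with a cell viability assay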
Description: SANGER: Inhibition of human AGS cell growth in a cell viability assay.

BEN = assay: cells; settings: Homo sapiens;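 also: growth inhibition of the BEN cell line, read out with a cell viability assay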
Description: SANGER: Inhibition of human BEN cell growth in a cell viability assay.

BFTC-909 = assay: cells; settings: Homo sapiens
Description: SANGER: Inhibition of human BFTC-909 cell growth in a cell viability assay.

BOKU = assay: cells; settings: Homo sapiens;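 also: growth inhibition of the human BOKU cell line, read out by a cell viability assay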
Description: SANGER: Inhibition of human BOKU cell growth in a cell viability assay.

BT-20 = assay: cells; settings: Homo sapiens;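 also: cell viability assay measuring suppression of growth in human BT-20 cells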
Description: SANGER: Inhibition of human BT-20 cell growth in a cell viability assay.

TYK-nu = assay: cells; settings: Homo sapiens;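 also: growth inhibition of human TYK-nu cells, read out by a cell viability assay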
Description: SANGER: Inhibition of human TYK-nu cell growth in a cell viability assay.

UACC-62 = assay: cells; settings: Homo sapiens;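 also: growth inhibition of human UACC-62 cells, read out by a cell viability assay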
Description: SANGER: Inhibition of human UACC-62 cell growth in a cell viability assay.

SMILES: O=c1[nH]c2ccccc2n1C1CCN(Cc2ccc(-c3nc4cc5[nH]cnc5cc4nc3-c3ccccc3)cc2)CC1
- IC50 (Ca9-22): > 2560 nM
- IC50 (Calu-3): > 2560 nM
- IC50 (D-336MG): > 2560 nM
- IC50 (D-392MG): > 2560 nM
- IC50 (D-542MG): > 2560 nM
- IC50 (EFO-27): > 2560 nM
- IC50 (HCC1395): > 2560 nM
- IC50 (HO-1-N-1): > 2560 nM
- IC50 (HPAF-II): > 2560 nM
- IC50 (HT55): > 2560 nM
- IC50 (IM-9): > 2560 nM
- IC50 (IMR-5): > 2560 nM
- IC50 (KARPAS-422): > 2560 nM
- IC50 (KYSE-180): > 2560 nM
- IC50 (KYSE-70 cell line): > 2560 nM
- IC50 (LCLC-103H cell line): > 2560 nM
- IC50 (LP-1): > 2560 nM
- IC50 (LU-165): > 2560 nM
- IC50 (LoVo): > 2560 nM
- IC50 (MDA-MB-361): 490 nM
- IC50 (MDA-MB-415): 1730 nM
- IC50 (ME-180): > 2560 nM
- IC50 (MFE-280): > 2560 nM
- IC50 (MKN-28): > 2560 nM
- IC50 (MONO-MAC-6): > 2560 nM
- IC50 (NCI-H1437): > 2560 nM
- IC50 (NCI-H1703): > 2560 nM
- IC50 (NCI-H1755): 1060 nM
- IC50 (NCI-H1963): > 2560 nM
- IC50 (NCI-H2087): > 2560 nM
- IC50 (NCI-H2122): > 2560 nM
- IC50 (NCI-H2452): > 2560 nM
- IC50 (NCI-H292): > 2560 nM
- IC50 (NCI-H358): > 2560 nM
- IC50 (NCI-H522): > 2560 nM
- IC50 (NCI-H719): > 2560 nM
- IC50 (NCI-H810): > 2560 nM
- IC50 (OE33): 1890 nM
- IC50 (PC-14): > 2560 nM
- IC50 (RD): > 2560 nM
- IC50 (RPMI-7951): > 2560 nM
- IC50 (RT-112): > 2560 nM
- IC50 (SCC-4): > 2560 nM
- IC50 (SF-295): > 2560 nM
- IC50 (SK-LU-1): > 2560 nM
- IC50 (SU-DHL-1): > 2560 nM
- IC50 (SUP-T1): > 2560 nM
- IC50 (SW1463): > 2560 nM
- IC50 (SW-620): > 2560 nM
- IC50 (SW837): > 2560 nM
- IC50 (SW948): > 2560 nM
- IC50 5637: > 2560 nM
- IC50 (639-V): > 2560 nM
- IC50 (8505C): > 2560 nM
- IC50 (A 172): > 2560 nM
- IC50 (ABC-1): > 2560 nM
- IC50 (AGS): > 2560 nM
- IC50 (BEN): > 2560 nM
- IC50 (BFTC-909): > 2560 nM
- IC50 (BOKU): > 2560 nM
- IC50 (BT-20): > 2560 nM
- IC50 (TYK-nu): > 2560 nM
- IC50 (UACC-62): > 2560 nM

SMILES: Fc1cc(-c2cc[nH]/c(=N/c3ccc(-n4cnc(N5CCOCC5)n4)cc3)n2)cc(N2CCOCC2)c1
- IC50 (Ca9-22): 389 nM
- IC50 (Calu-3): 824 nM
- IC50 (D-336MG): 1010 nM
- IC50 (D-392MG): 1930 nM
- IC50 (D-542MG): 357 nM
- IC50 (EFO-27): 413 nM
- IC50 (HCC1395): 413 nM
- IC50 (HO-1-N-1): 617 nM
- IC50 (HPAF-II): 512 nM
- IC50 (HT55): > 5120 nM
- IC50 (IM-9): 3340 nM
- IC50 (IMR-5): 2050 nM
- IC50 (KARPAS-422): 406 nM
- IC50 (KYSE-180): 272 nM
- IC50 (KYSE-70 cell line): 627 nM
- IC50 (LCLC-103H cell line): 135 nM
- IC50 (LP-1): 483 nM
- IC50 (LU-165): 825 nM
- IC50 (LoVo): 437 nM
- IC50 (MDA-MB-361): 1070 nM
- IC50 (MDA-MB-415): 1330 nM
- IC50 (ME-180): 1410 nM
- IC50 (MFE-280): > 5120 nM
- IC50 (MKN-28): 301 nM
- IC50 (MONO-MAC-6): 544 nM
- IC50 (NCI-H1437): 243 nM
- IC50 (NCI-H1703): 591 nM
- IC50 (NCI-H1755): 349 nM
- IC50 (NCI-H1963): 873 nM
- IC50 (NCI-H2087): 341 nM
- IC50 (NCI-H2122): 238 nM
- IC50 (NCI-H2452): 1690 nM
- IC50 (NCI-H292): 508 nM
- IC50 (NCI-H358): 377 nM
- IC50 (NCI-H522): 887 nM
- IC50 (NCI-H719): 2240 nM
- IC50 (NCI-H810): 208 nM
- IC50 (OE33): 517 nM
- IC50 (PC-14): 877 nM
- IC50 (RD): 1300 nM
- IC50 (RPMI-7951): 721 nM
- IC50 (RT-112): 337 nM
- IC50 (SCC-4): 1250 nM
- IC50 (SF-295): 555 nM
- IC50 (SK-LU-1): 987 nM
- IC50 (SU-DHL-1): 346 nM
- IC50 (SUP-T1): 427 nM
- IC50 (SW1463): 649 nM
- IC50 (SW-620): 355 nM
- IC50 (SW837): 2950 nM
- IC50 (SW948): 835 nM
- IC50 5637: 5040 nM
- IC50 (639-V): 220 nM
- IC50 (8505C): 1260 nM
- IC50 (A 172): 669 nM
- IC50 (ABC-1): 889 nM
- IC50 (AGS): 415 nM
- IC50 (BEN): 585 nM
- IC50 (BFTC-909): 838 nM
- IC50 (BOKU): 3100 nM
- IC50 (BT-20): 493 nM
- IC50 (TYK-nu): 2620 nM
- IC50 (UACC-62): 370 nM
